Data as given in patent US8247211B2, “Glycopeptide antibiotics” (American Cyanamid Company, priority 2001, dated 2012).

Legend:
[1] = test system: Staphylococcus aureus-SMITH (GC 4543); assay: Acute lethal infection in mice (ED50); format: in vivo; settings: female CD-1 mice, intraperitoneal challenge, intravenous dose 30 min. after infection, 7 day survival ratios
Method in brief: (§1)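 ED50 derived from pooled 7-day survival in three separate experiments, five mice per dose level. Single intravenous dose 30 min after intraperitoneal infection of female CD-1 mice with enough bacteria to kill untreated animals in 24-48 h.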

[2] = test system: Enterococcus faecalis (GC 2246), vancomycin resistant strain; assay: Acute lethal infection in mice (ED50); format: in vivo; settings: female CD-1 mice, intraperitoneal challenge, intravenous dose 30 min. after infection, 7 day survival ratios
Method in brief: as §1

Escherichia coli = assay: In vitro antibacterial evaluation: minimum inhibitory concentration (MIC), broth dilution method; format: cell-based
Method in brief: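 Susceptibility determined by NCCLS-recommended broth dilution (M7-A2), Muller-Hinton II […]. Concentration span 64-0.06 μg/mL, inoculum 5×10^5 CFU/mL. Isolates include strains resistant to methicillin, penicillin and/or vancomycin.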

Staphylococcus sp. = assay: as above; format: cell-based; settings: for MIC Staphylococcus haemolyticus (GC 4546): strain GC 4546; for MIC Coagulase Negative Staphylococcus (GC 4547): strain GC 4547; for MIC Coagulase Negative Staphylococcus (GC 4548): strain GC 4548; for MIC Coagulase Negative Staphylococcus (GC 4549): strain GC 4549; for MIC Coagulase Negative Staphylococcus (GC 4551): strain GC 4551; for MIC Staphylococcus aureus (GC 3051): strain GC 3051; for MIC Staphylococcus aureus (GC 3053): strain GC 3053; for MIC Coagulase Negative Staphylococcus (GC 6257): strain GC 6257
Method in brief: (§2)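 An MIC is reported for each organism as the least concentration giving inhibition, using broth dilution over 64-0.06 μg/mL with a 5×10^5 CFU/mL inoculum.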

Streptococcus sp. = assay: as above; format: cell-based
Method in brief: as §2

Enterococcus sp. = assay: as above; format: cell-based
Method in brief: as §2

[3] = format: in vivo; settings: mice, 20 mg/kg intravenously daily for 9 days, serum on day 10
Description: 20-day-old CD-1 mice were divided into a vehicle control group (5 mice) and a treatment group (5 mice). Samples of glycopeptide antibiotics were administered at 20 mg/kg intravenously daily for 9 days. Animals were necropsied on day 10 Sera were analyzed for BUN (blood urea nitrogen), creatinine, AST (aspartic aminotransferase), and ALT (alanine aminotransferase) by routine, standard, automated methods using an Hitachi 747 chemistry analyzer.

[4] = test system: Enterococcus faecalis (GC 6189), vancomycin resistant strain; assay: Acute lethal infection in mice (ED50); format: in vivo; settings: female CD-1 mice, intraperitoneal challenge, intravenous dose 30 min. after infection, 7 day survival ratios
Method in brief: as §1

[5] = test system: Streptococcus pneumoniae (GC 1894), penicillin resistant strain; assay: Acute lethal infection in mice (ED50); format: in vivo; settings: female CD-1 mice, intraperitoneal challenge, intravenous dose 30 min. after infection, 7 day survival ratios
Method in brief: as §1

[6] = Anatomic pathology (heart and kidney histopathology) in mice; format: in vivo, CD-1 mice; settings: 20 mg/kg intravenously daily for 9 days, microscopic histopathology on day 10
Method in brief: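 Histopathology on H&E-stained, paraffin-embedded sections, subjectively scored (slight, mild, moderate, marked, severe) relative to untreated controls. Dosing: glycopeptide antibiotics 20 mg/kg intravenously once daily ×9 days in 20-day-old CD-1 mice, n=5 per group including vehicle.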

[7] = broth dilution, 18 hours at 35° C.
[8] = Streptococcus agalactiae (GC 4564), broth dilution, 18 hours at 35° C.
[9] = Streptococcus pneumoniae (GC 4565), broth dilution, 18 hours at 35° C.
[10] = Enterococcus faecalis (GC 2242), broth dilution, 18 hours at 35° C.
[11] = 5×10^5 CFU/mL, 18 hours at 35° C.
[12] = broth dilution, 5×10^5 CFU/mL, 18 hours at 35° C.

CC(c1ccccc1)C1NC(=O)CNC(=O)C(CO)NC(=O)C(C(O)C2CNC(=N)N2C2OC(CO)C(O)C(O)C2O)NC(=O)C(C(O)C2CNC(=N)N2)NC(=O)C(Cc2ccc(OC3OC(CO)C(OC4OC(COC(=O)C(c5ccccc5)c5ccccc5)C(O)C(O)C4O)C(O)C3O)cc2)NC1=O (stereo not drawn) [Example 96c, Cyclo[glycyl-β-methylphenylalanyl-O-[4-O-[6-O-(diphenylacetyl)hexopyranosyl)hexopyranosyl]tyrosyl-3-(2-iminoimidazolidin-4-yl)seryl-3-(3-hexopyranosyl-2-iminoimidazolidin-4-yl)serylseryl]]
0.5 µg/mL: MIC Staphylococcus aureus (GC 1131) (Staphylococcus sp.; [7]) | MIC Staphylococcus aureus (GC 4541) (Staphylococcus sp.; [7]) | MIC Staphylococcus aureus (GC 4545) (Staphylococcus sp.; [7]) | MIC Staphylococcus aureus-SMITH (GC 4543) (Staphylococcus sp.; strain GC 4543, 18 hours at 35° C.) | MIC Staphylococcus haemolyticus (GC 4546) (Staphylococcus sp.) | MIC Coagulase Negative Staphylococcus (ID-3941) (Staphylococcus sp.; strain ID-3941) | MIC Staphylococcus aureus-SMITH (GC 4543) (Staphylococcus sp.; strain SMITH GC 4543, broth dilution, 18 hours at 35° C.)
5.2 mg/kg: median effective dose (ED50), Enterococcus faecalis (GC 2246) [2]
<0.06 µg/mL: MIC Streptococcus agalactiae (GC 4564) (Streptococcus sp.; [8]) | MIC Streptococcus pneumoniae (GC 4565) (Streptococcus sp.; [9]) | MIC Streptococcus pyogenes (ID-3187) (Streptococcus sp.; Streptococcus pyogenes (ID-3187), broth dilution, 18 hours at 35° C.) | MIC Streptococcus agalactiae (GC 4564) (Streptococcus sp.; strain GC 4564) | MIC Streptococcus pneumoniae (GC 4565) (Streptococcus sp.; strain GC 4565) | MIC Streptococcus pyogenes (ID-3187) (Streptococcus sp.; strain ID-3187)
0.25 µg/mL: MIC Coagulase Negative Staphylococcus (GC 4548) (Staphylococcus sp.)
2 µg/mL: MIC Enterococcus faecalis (ATCC 29212) (Enterococcus sp.; strain ATCC 29212) | MIC Enterococcus faecium (GC 2243) (Enterococcus sp.; strain GC 2243) | MIC Enterococcus faecalis (GC 4552) (Enterococcus sp.; strain GC 4552) | MIC Enterococcus faecalis (GC 4553) (Enterococcus sp.; strain GC 4553) | MIC Enterococcus faecalis (GC 4554) (Enterococcus sp.; strain GC 4554) | MIC Enterococcus faecium (GC 4556) (Enterococcus sp.; strain GC 4556) | MIC Enterococcus avium (GC 4558) (Enterococcus sp.; strain GC 4558)
1 µg/mL: MIC Staphylococcus aureus (ATCC 29213) (Staphylococcus sp.; [7]) | MIC Staphylococcus aureus (GC 4542) (Staphylococcus sp.; [7]) | MIC Staphylococcus aureus (GC 4544) (Staphylococcus sp.; [7]) | MIC Coagulase Negative Staphylococcus (GC 4547) (Staphylococcus sp.) | MIC Coagulase Negative Staphylococcus (GC 4549) (Staphylococcus sp.) | MIC Coagulase Negative Staphylococcus (GC 4551) (Staphylococcus sp.) | MIC Enterococcus faecalis (GC 2242) (Enterococcus sp.; [10]) | MIC Enterococcus faecalis (GC 2242) (Enterococcus sp.; strain GC 2242) | MIC Enterococcus faecium (GC 4557) (Enterococcus sp.; strain GC 4557)
64 µg/mL: MIC Escherichia coli (ATCC 25922) (Escherichia coli; strain ATCC 25922)
0.29 mg/kg: median effective dose (ED50), Staphylococcus aureus-SMITH (GC 4543) [1]

CC(c1ccccc1)C1NC(=O)CNC(=O)C(CO)NC(=O)C(C(O)C2CNC(=N)N2C2OC(CO)C(O)C(O)C2O)NC(=O)C(C(O)C2CNC(=N)N2)NC(=O)C(Cc2ccc(OC3OC(CO)C(OC4OC5COC6(OC5C(O)C4O)C4CC5CC(C4)CC6C5)C(O)C3O)cc2)NC1=O (stereo not drawn) [Example 105, Cyclo[glycyl-β-methylphenylalanyl-O-[4-O-[4,6-O-(2-adamantylidene)hexopyranosyl]hexopyranosyl]tyrosyl-3-(2-iminoimidazolidin-4-yl)seryl-3-(3-hexopyranosyl-2-iminoimidazoliclin-4-yl)serylseryl]]
+480%: Clinical Chemistry (Day 10) % of Control, ALT [3]
<0.06 µg/mL: MIC Streptococcus pneumoniae (ATCC 6301) (Streptococcus sp.; Streptococcus pneumoniae (ATCC 6301), broth dilution, 18 hours at 35° C.) | MIC Streptococcus pneumoniae (GC 1894) (Streptococcus sp.; Streptococcus pneumoniae (GC 1894), broth dilution, 18 hours at 35° C.) | MIC Streptococcus pneumoniae (GC 4565) (Streptococcus sp.; [9]) | MIC Streptococcus pneumoniae (GC 1894) (Streptococcus sp.; [12]) | MIC Streptococcus pneumoniae (GC 4565) (Streptococcus sp.; [12]) | MIC Streptococcus pneumonine (ATCC 6301) (Streptococcus sp.; [12])
+++: Anatomical Pathology (Day 10), Heart [6] | Anatomical Pathology (Day 10), Kidney [6]
1.8-1.96: median effective dose (ED50), Enterococcus faecalis (GC 6189) [4]
<0.5 to 1 µg/mL: MIC Staphylococcus aureus (ATCC 29213) (Staphylococcus sp.; strain ATCC 29213) | MIC Staphylococcus aureus (ATCC 29213) (Staphylococcus sp.; strain ATCC 29213, broth dilution, 18 hours at 35° C.) | MIC Staphylococcus aureus (GC 4541) (Staphylococcus sp.; strain GC 4541) | MIC Staphylococcus aureus (GC 4541) (Staphylococcus sp.; strain GC 4541, broth dilution, 18 hours at 35° C.) | MIC Staphylococcus aureus (GC 4545) (Staphylococcus sp.; strain GC 4545) | MIC Staphylococcus aureus (GC 4545) (Staphylococcus sp.; strain GC 4545, broth dilution, 18 hours at 35° C.) | MIC Staphylococcus haemolyticus (GC 4546) (Staphylococcus sp.) | MIC Staphylococcus haemolyticus (GC 4546) (Staphylococcus sp.; [7]) | MIC Coagulase Negative Staphylococcus (GC 4548) (Staphylococcus sp.) | MIC Coagulase Negative Staphylococcus (GC 4548) (Staphylococcus sp.; [7]) | MIC Coagulase Negative Staphylococcus (GC 4551) (Staphylococcus sp.) | MIC Coagulase Negative Staphylococcus (GC 4551) (Staphylococcus sp.; [7])
32 µg/mL: MIC Escherichia coli (GC 4559) (Escherichia coli; [11])
0.5 to 2 µg/mL: MIC Escherichia coli (GC 4560) (Escherichia coli; [11]) | MIC Enterococcus faecalis (GC 2242) (Enterococcus sp.; [10]) | MIC Enterococcus faecium (GC 4556) (Enterococcus sp.; Enterococcus faecium (GC 4556), broth dilution, 18 hours at 35° C.) | MIC Enterococccus faecium (GC 4556) (Enterococcus sp.; [12]) | MIC Enterococcus faecalis (GC 2242) (Enterococcus sp.; [12])
0.04 mg/kg: median effective dose (ED50), Streptococcus pneumoniae (GC 1894) [5]
+35%: Clinical Chemistry (Day 10) % of Control, BUN [3]
+205%: Clinical Chemistry (Day 10) % of Control, AST [3]
0.5 to 1 µg/mL: MIC Staphylococcus aureus (GC 3051) (Staphylococcus sp.) | MIC Staphylococcus aureus (GC 3051) (Staphylococcus sp.; [7]) | MIC Staphylococcus aureus (GC 4542) (Staphylococcus sp.; strain GC 4542) | MIC Staphylococcus aureus (GC 4542) (Staphylococcus sp.; strain GC 4542, broth dilution, 18 hours at 35° C.) | MIC Coagulase Negative Staphylococcus (GC 4547) (Staphylococcus sp.) | MIC Coagulase Negative Staphylococcus (GC 4547) (Staphylococcus sp.; [7]) | MIC Coagulase Negative Staphylococcus (GC 4549) (Staphylococcus sp.) | MIC Coagulase Negative Staphylococcus (GC 4549) (Staphylococcus sp.; [7]) | MIC Coagulase Negative Staphylococcus (GC 6257) (Staphylococcus sp.) | MIC Coagulase Negative Staphylococcus (GC 6257) (Staphylococcus sp.; [7])
0.04-0.08: median effective dose (ED50), Staphylococcus aureus-SMITH (GC 4543) [1]
<0.06 to 0.25 µg/mL: MIC Streptococcus agalactiae (GC 4564) (Streptococcus sp.; [8]) | MIC Streptococcus agalactiae (GC 4564) (Streptococcus sp.; [12])
1 to 2 µg/mL: MIC Staphylococcus aureus (GC 3053) (Staphylococcus sp.) | MIC Staphylococcus aureus (GC 3053) (Staphylococcus sp.; [7]) | MIC Enterococcus avium (GC 4558) (Enterococcus sp.; Enterococcus avium (GC 4558), broth dilution, 18 hours at 35° C.) | MIC Enterococcus faecalis (ATCC 29212) (Enterococcus sp.; Enterococcus faecalis (ATCC 29212), broth dilution, 18 hours at 35° C.) | MIC Enterococcus faecalis (GC 2691) (Enterococcus sp.; Enterococcus faecalis (GC 2691), broth dilution, 18 hours at 35° C.) | MIC Enterococcus faecalis (GC 3059) (Enterococcus sp.; Enterococcus faecalis (GC 3059), broth dilution, 18 hours at 35° C.) | MIC Enterococcus faecalis (GC 4552) (Enterococcus sp.; Enterococcus faecalis (GC 4552), broth dilution, 18 hours at 35° C.) | MIC Enterococcus faecalis (GC 4553) (Enterococcus sp.; Enterococcus faecalis (GC 4553), broth dilution, 18 hours at 35° C.) | MIC Enterococcus faecalis (GC 4554) (Enterococcus sp.; Enterococcus faecalis (GC 4554), broth dilution, 18 hours at 35° C.) | MIC Enterococcus faecalis (GC 6189) (Enterococcus sp.; Enterococcus faecalis (GC 6189), broth dilution, 18 hours at 35° C.) | MIC Enterococcus faecium (GC 2243) (Enterococcus sp.; Enterococcus faecium (GC 2243), broth dilution, 18 hours at 35° C.) | MIC Enterococcus faecium (GC 4557) (Enterococcus sp.; Enterococcus faecium (GC 4557), broth dilution, 18 hours at 35° C.) | MIC Enterococccus avium (GC 4558) (Enterococcus sp.; [12]) | MIC Enterococccus faecalis (ATCC 29212) (Enterococcus sp.; [12]) | MIC Enterococccus faecalis (GC 2691) (Enterococcus sp.; [12]) | MIC Enterococccus faecalis (GC 3059) (Enterococcus sp.; [12]) | MIC Enterococccus faecalis (GC 4552) (Enterococcus sp.; [12]) | MIC Enterococccus faecalis (GC 4553) (Enterococcus sp.; [12]) | MIC Enterococccus faecalis (GC 4554) (Enterococcus sp.; [12]) | MIC Enterococccus faecalis (GC 6189) (Enterococcus sp.; [12]) | MIC Enterococccus faecium (GC 2243) (Enterococcus sp.; [12]) | MIC Enterococccus faecium (GC 4557) (Enterococcus sp.; [12])
<0.06 to 0.12 µg/mL: MIC Streptococcus pyogenes (GC 4563) (Streptococcus sp.; Streptococcus pyogenes (GC 4563), broth dilution, 18 hours at 35° C.) | MIC Streptococcus pyogenes (GC 4563) (Streptococcus sp.; [12])
16 to 32 µg/mL: MIC Escherichia coli (ATCC 25922) (Escherichia coli; [11])
